The results in this text go back to paper PMC6934184, “Selective DNA-PKcs inhibition extends the therapeutic index of localized radiotherapy and chemotherapy” (The Journal of Clinical Investigation, 2019).

For the assay, the target named is T1, CLK1 (Homo sapiens, UniProt P49759).
T1 construct: purchased Thermo Fisher Scientific (Life Technologies) SelectScreen
Put plainly: SelectScreen Z'LYTE. It counts as biochemical. Summed up: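 Percent values come from Thermo SelectScreen profiling of NU5455, combining activity and binding assays. CSF1R was run in Z'LYTE format at Km app ATP, and CAMK1 in Adapta format with ATP listed at 10.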

T1 sequence (P49759 whole entry): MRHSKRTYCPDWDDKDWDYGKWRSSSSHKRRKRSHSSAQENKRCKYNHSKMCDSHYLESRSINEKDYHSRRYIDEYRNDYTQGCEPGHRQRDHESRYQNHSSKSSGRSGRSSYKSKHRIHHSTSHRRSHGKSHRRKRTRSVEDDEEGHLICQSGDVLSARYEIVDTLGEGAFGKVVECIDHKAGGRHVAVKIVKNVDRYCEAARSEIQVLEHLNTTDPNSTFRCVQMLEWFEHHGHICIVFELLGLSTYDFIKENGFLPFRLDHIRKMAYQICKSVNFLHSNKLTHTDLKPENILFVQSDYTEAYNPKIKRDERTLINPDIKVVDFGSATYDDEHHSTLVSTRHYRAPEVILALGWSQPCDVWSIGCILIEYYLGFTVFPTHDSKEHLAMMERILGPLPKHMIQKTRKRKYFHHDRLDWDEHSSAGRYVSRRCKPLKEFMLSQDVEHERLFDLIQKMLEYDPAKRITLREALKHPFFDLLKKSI

In general, inhibition refers to the relative decrease from the control value, in per cent. Read a low inhibition as little suppression. Regarding `CN(C(=O)CN1CCOCC1)c1ccc2sc3c(-c4cccc5c(=O)cc(N6CC7CCC(C6)O7)oc45)cccc3c2c1` [NU5455], the inhibition at 1 µM came out at 11.7%.
